From US20090305993A1, “METHODS AND COMPOSITION FOR THE TREATMENT OF GASTROINTESTINAL DISORDERS” (IRONWOOD PHARMACEUTICALS, INC., priority 2006, published 2009)
Where a SMILES comes first, the peptide text is derived from it. Bridges are numbered along the chain shown (N, C = ends).

How the values were obtained:
[1] = biological target: intestinal epithelial cells from wild-type and GC-C KO mice (Mus musculus, UniProt Q3UWA6); conditions: 125I-SEQ ID NO:3 alone or with excess unlabeled SEQ ID NO:3, FIG. 9b
Sequence of intestinal epithelial cells from wild-type and GC-C KO mice (Q3UWA6 20-1072): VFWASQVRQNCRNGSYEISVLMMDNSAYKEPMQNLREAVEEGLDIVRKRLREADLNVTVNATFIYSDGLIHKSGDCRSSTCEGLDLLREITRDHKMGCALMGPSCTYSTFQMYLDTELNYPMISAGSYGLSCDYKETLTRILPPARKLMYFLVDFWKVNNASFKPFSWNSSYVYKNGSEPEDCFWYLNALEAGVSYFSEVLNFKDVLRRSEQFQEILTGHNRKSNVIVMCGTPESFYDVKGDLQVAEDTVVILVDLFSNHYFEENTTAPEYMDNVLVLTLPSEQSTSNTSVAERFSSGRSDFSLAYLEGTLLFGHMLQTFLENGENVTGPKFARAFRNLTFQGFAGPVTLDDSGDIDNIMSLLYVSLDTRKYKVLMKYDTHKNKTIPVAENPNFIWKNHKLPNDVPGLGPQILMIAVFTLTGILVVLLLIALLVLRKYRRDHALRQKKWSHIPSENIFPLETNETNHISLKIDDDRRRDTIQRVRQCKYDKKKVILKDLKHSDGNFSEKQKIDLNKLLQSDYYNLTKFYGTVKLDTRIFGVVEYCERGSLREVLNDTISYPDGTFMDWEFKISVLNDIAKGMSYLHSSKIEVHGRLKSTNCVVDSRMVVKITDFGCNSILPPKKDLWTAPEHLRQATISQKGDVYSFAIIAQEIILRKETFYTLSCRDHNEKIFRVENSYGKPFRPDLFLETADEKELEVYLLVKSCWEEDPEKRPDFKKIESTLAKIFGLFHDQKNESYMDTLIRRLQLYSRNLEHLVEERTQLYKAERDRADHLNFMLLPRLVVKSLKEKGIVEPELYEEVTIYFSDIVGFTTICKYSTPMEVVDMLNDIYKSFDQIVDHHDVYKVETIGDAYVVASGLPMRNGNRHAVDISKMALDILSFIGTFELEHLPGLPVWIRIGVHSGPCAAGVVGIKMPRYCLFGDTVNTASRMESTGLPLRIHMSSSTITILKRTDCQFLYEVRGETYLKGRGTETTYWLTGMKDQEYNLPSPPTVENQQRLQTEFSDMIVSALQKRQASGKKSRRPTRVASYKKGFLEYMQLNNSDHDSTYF
Protocol: Mouse intestinal epithelial cells were prepared identical to that above as for rat intestinal epithelial cells except the cells were homogenized with an Omni homogenizer for 20 seconds on the maximum setting to make a suspension of cells. A competition binding assay was performed identical to that described above between ^125I labeled SEQ ID NO:3 and unlabeled SEQ ID NO:3 (competitor).

[2] = test system: mice; test: murine gastrointestinal transit (GIT) assay, acute dosing; type: in vivo, mouse
Protocol: In order to determine whether the peptides increase the rate of gastrointestinal transit, the peptides and controls were tested using a murine gastrointestinal transit (GIT) assay (Moon et al. Infection and Immunity 25:127, 1979). In this assay, charcoal, which can be readily visualized in the gastrointestinal tract is administered to mice after the administration of a test compound. The distance traveled by the charcoal is measured and expressed as a percentage of the total length of the […].
Mice were fasted with free access to water for 12 to 16 hours before the treatment with peptide or control buffer. The peptides were orally administered at 1 μg/kg-1 mg/kg of peptide in buffer (20 mM Tris pH 7.5) 7 minutes before being given an oral dose of 5% Activated Carbon (Aldrich 242276-250G). Control mice were administered buffer only before being given a dose of Activated Carbon. After 15 minutes, the mice were sacrificed and their intestines from the stomach to the cecum were dissected. The total length of the intestine as well as the distance traveled from the stomach to the charcoal front was measured for each animal and the results are expressed as the percent of the total length of the intestine traveled by the charcoal front. All results are reported as the average of 10 mice±standard deviation. A comparison of the distance traveled by the charcoal between the mice treated with peptide versus the mice treated with vehicle alone was performed using a Student's t test and a statistically significant difference was considered for P<0.05. P-values are calculated using a two-sided T-Test assuming unequal variances.

[3] = stability in simulated gastric fluid (SGF) pH 1; type: in vitro ADME; conditions: pH 1, 37° C., up to 3 h
Protocol: All samples were analyzed by LC/MS
The reference control sample was diluted 10-fold (1000 μL volume) in distilled water for a final concentration of 10 μM and chilled on ice. At each time point, samples were diluted 10-fold (1000 μL volume) in distilled water for an expected concentration of 10 μM, and chilled on ice, until analysis.

[4] = test system: female Wistar rats; test: partial restraint stress-induced hyperalgesia model; type: in vivo, rat; conditions: oral 0.3 and 3.0 μg/kg, distending pressure 15 mm Hg, p<0.0001, FIG. 7b
Protocol: Five groups of female Wistar rats (weighing 200-250 g each), were surgically prepared for electromyography as described (Morteau et al. 1994 Dig Dis Sci 39:1239-48) and were used to evaluate the effects of SEQ ID NO:3 on colorectal sensitivity and compliance after a 2 hour partial restraint stress session. Partial restraint stress (PRS), a relatively mild stress, was induced as previously described (Morteau et al. 1994 Dig Dis Sci 39:1239-48). Female rats were lightly anesthetized with diethyl ether and their shoulders, upper forelimbs and thoracic trunk were wrapped in a confining harness of paper tape to restrict, but not prevent body movements. Control sham-stress animals were anesthetized but not wrapped. […] Electrical activity was recorded with an electroencephalograph (Mini VIII, Alvar, Paris, France) using a short time constant (0.03 sec.) to remove low-frequency signals (<3 Hz) and a paper speed of 3.6 cm/minute. […] Colonic pressure and balloon volume were continuously monitored on a potentiometric recorder (L6514, Linseis, Selb, Germany) with a paper speed of 1.0 cm/minute. The number of spike bursts, corresponding to abdominal contractions, was evaluated per 5-minute period. Colorectal volumes were determined as the maximal volume obtained for each stage of distension using the potentiometric recorder. […] The values were expressed as mean±SEM.

[5] = test system: adult male Wistar rats; test: water avoidance stress-induced visceral hyperalgesia model; type: in vivo, rat; conditions: oral 3 μg/kg, FIG. 7f
Protocol: The effect of SEQ ID NO:3 on basal visceral nociception in a model of water avoidance stress-induced visceral hyperalgesia in adult male Wistar rats was tested. The stress involved confining rats to a platform surrounded by water for a period of 1 hour and then measuring their visceromotor response to colonic distension using electromyography (EMG).
Electrode leads were then tunneled subcutaneously and externalized laterally for future access. Following surgery, rats were housed in pairs and allowed to recover for at least 7 days. On the day of the experiment, animals were lightly anesthetized with halothane, and a lubricated latex balloon (6 cm) was inserted intra-anally into the descending colon. Animals were allowed to recover for 30 minutes, and colorectal distension (CRD) was initiated. The CRD procedure consisted of graded intensities of phasic CRD (10, 20, 40, 60 mmHg; 20 s duration; 4 min inter-stimulus interval). Visceromotor response (VMR) to CRD was quantified by measuring EMG activity. […] Animals were allowed 1 hour recovery and then SEQ ID NO:3 or vehicle was orally administered. At 1 hour following administration of SEQ ID NO:3 or vehicle CRD was repeated. […]
To determine the effect of SEQ ID NO:3 in a model of water avoidance stress-induced visceral hyperalgesia, a baseline CRD was recorded and then the animals were subjected to 1 hour of water avoidance stress. […]

C[C@@H]1NC(=O)[C@@H]2CCCN2C(=O)[C@H](CC(N)=O)NC(=O)[C@@H]2CSSC[C@H](N)C(=O)N[C@H]3CSSC[C@H](NC1=O)C(=O)N[C@@H]([C@@H](C)O)C(=O)NCC(=O)N[C@H](C(=O)N[C@@H](Cc1ccc(O)cc1)C(=O)O)CSSC[C@H](NC(=O)[C@H](Cc1ccc(O)cc1)NC(=O)[C@H](CCC(=O)O)NC3=O)C(=O)N2 [SEQ ID NO:3] (H-CCEYCCNPACTGCY-OH; disulfide 1-6, 2-10, 5-13; N-terminus and C-terminus assumed)
binding to intestinal epithelial cells, GC-C KO compared to wild-type mice [1]: reduction in SEQ ID NO:3 binding
intestinal transit rates versus Tris buffer and Zelnorm ([2]; chemically synthesized peptides, FIG. 4b): increase intestinal transit rates more than either Tris buffer alone or an equivalent dose of Zelnorm®
gastrointestinal transit rate ([2]; oral, SEQ ID NO:4 0.1 mg/kg, Zelnorm 0.1 mg/kg, FIG. 3a, 3b): increase gastrointestinal transit rate
Cleavage of SEQ ID NO: 3 by proteolytic substance [3]: not detectable
response to CRD after partial restraint stress [4]: reduced the response to CRD after PRS
visceromotor response to CRD 24 hours after water avoidance stress [5]: exhibited anti-hyperalgesic properties
